According to PubChem BioAssay AID1963983 (Molecular Pharmacology Branch, DTP, NCI, 2024):

System: 186277-243-T-J2-PDC multi-cell spheroid viability
Assay: Anticancer human tumor 186277-243-T-J2-PDC patient-derived colon adenocarcinoma cell line growth inhibition [PI3K]
Conditions: for IC50: curve of first compound; for viability, T/C: stronger effect = lower value
Summary of the method: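 Tumor cells grown as multi-cell spheroids with HUVEC endothelial cells and MSC fibroblast-like stroma were treated with targeted agents combined with inavolisib, alpelisib, duvelisib or copanlisib. Doses fell in half-log steps from near clinical Cmax, else from 10 microM. Viability was measured.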

[1] = second compound 0.0316 µM, first compound 0.0316 µM
[2] = second compound 0.0316 µM, first compound 0.1 µM
[3] = second compound 0.1 µM, first compound 0.0316 µM
[4] = second compound 0.1 µM, first compound 0.1 µM
[5] = second compound 0.316 µM, first compound 0.0316 µM
[6] = second compound 0.316 µM, first compound 0.1 µM
[7] = second compound 1 µM, first compound 0.0316 µM
[8] = second compound 1 µM, first compound 0.1 µM
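Further: spheroids exposed to compounds for seven days before viability reading.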
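Wherever viability, T/C is given: 100% = DMSO vehicle control viability.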

C[C@@H](NC(=O)c1ncnc(N)c1Cl)c1ncc(C(=O)Nc2cc(C(F)(F)F)c(Cl)cn2)s1 + Cc1nc(NC(=O)N2CCCC2C(N)=O)sc1-c1ccnc(C(C)(C)C(F)(F)F)c1 showed an IC50 (second compound 0.0316 µM) of over 10000 nM, an IC50 (second compound 0.1 µM) of over 10000 nM and an IC50 (second compound 0.316 µM) of 8100 nM. The IC50 (second compound 1 µM) was 4320 nM, the IC50 (second compound 3.16 µM) was 382 nM and the IC50 (second compound 10 µM) was under 31.6 nM. The viability, T/C [1] was 87.8%, the viability, T/C [2] was 78.3% and the viability, T/C (second compound 0.0316 µM, first compound 0.316 µM) was 101%. The viability, T/C (second compound 0.0316 µM, first compound 1 µM) was 99.5%, the viability, T/C (second compound 0.0316 µM, first compound 3.16 µM) was 102% and the viability, T/C (second compound 0.0316 µM, first compound 10 µM) was 78.4%. It also gave a viability, T/C [3] of 92.9%, a viability, T/C [4] of 90.8% and a viability, T/C (second compound 0.1 µM, first compound 0.316 µM) of 93.9%. The viability, T/C (second compound 0.1 µM, first compound 1 µM) was 108%, the viability, T/C (second compound 0.1 µM, first compound 3.16 µM) was 99.2% and the viability, T/C (second compound 0.1 µM, first compound 10 µM) was 72%. It also gave a viability, T/C [5] of 104%, a viability, T/C [6] of 107% and a viability, T/C (second compound 0.316 µM, first compound 0.316 µM) of 105%. It also gave a viability, T/C (second compound 0.316 µM, first compound 1 µM) of 88.1%, a viability, T/C (second compound 0.316 µM, first compound 3.16 µM) of 85.8% and a viability, T/C (second compound 0.316 µM, first compound 10 µM) of 42.1%. For the same molecule, the viability, T/C [7] was 103%, the viability, T/C [8] was 88.5% and the viability, T/C (second compound 1 µM, first compound 0.316 µM) was 102%. It also gave a viability, T/C (second compound 1 µM, first compound 1 µM) of 91.2%, a viability, T/C (second compound 1 µM, first compound 3.16 µM) of 62.8% and a viability, T/C (second compound 1 µM, first compound 10 µM) of 15.7%. For the same molecule, the viability, T/C (second compound 3.16 µM, first compound 0.0316 µM) was 77.8%, the viability, T/C (second compound 3.16 µM, first compound 0.1 µM) was 65.8% and the viability, T/C (second compound 3.16 µM, first compound 0.316 µM) was 54.9%. The viability, T/C (second compound 3.16 µM, first compound 1 µM) was 33.3%, the viability, T/C (second compound 3.16 µM, first compound 3.16 µM) was 12.9% and the viability, T/C (second compound 3.16 µM, first compound 10 µM) was 6%. The viability, T/C (second compound 10 µM, first compound 0.0316 µM) was 18.7%, the viability, T/C (second compound 10 µM, first compound 0.1 µM) was 18.9% and the viability, T/C (second compound 10 µM, first compound 0.316 µM) was 14.2%. It also gave a viability, T/C (second compound 10 µM, first compound 1 µM) of 4.89%, a viability, T/C (second compound 10 µM, first compound 3.16 µM) of 5.43% and a viability, T/C (second compound 10 µM, first compound 10 µM) of 0.25%.
With CC(=O)c1c(C)c2cnc(Nc3ccc(N4CCNCC4)cn3)nc2n(C2CCCC2)c1=O + COc1c(OCCCN2CCOCC2)ccc2c3n(c(=NC(=O)c4cnc(N)nc4)nc12)CCN3 the IC50 (second compound 0.00316 µM) was over 100 nM, the IC50 (second compound 0.01 µM) was over 100 nM and the IC50 (second compound 0.0316 µM) was 57.4 nM. The IC50 (second compound 0.1 µM) was under 0.316 nM, the IC50 (second compound 0.316 µM) was under 0.316 nM and the IC50 (second compound 1 µM) was under 0.316 nM. The viability, T/C (second compound 0.00316 µM, first compound 0.000316 µM) was 101%, the viability, T/C (second compound 0.00316 µM, first compound 0.001 µM) was 107% and the viability, T/C (second compound 0.00316 µM, first compound 0.00316 µM) was 97.3%. The viability, T/C (second compound 0.00316 µM, first compound 0.01 µM) was 94.9%, the viability, T/C (second compound 0.00316 µM, first compound 0.0316 µM) was 112% and the viability, T/C (second compound 0.00316 µM, first compound 0.1 µM) was 113%. For the same molecule, the viability, T/C (second compound 0.01 µM, first compound 0.000316 µM) was 110%, the viability, T/C (second compound 0.01 µM, first compound 0.001 µM) was 102% and the viability, T/C (second compound 0.01 µM, first compound 0.00316 µM) was 87.9%. For the same molecule, the viability, T/C (second compound 0.01 µM, first compound 0.01 µM) was 91.7%, the viability, T/C (second compound 0.01 µM, first compound 0.0316 µM) was 117% and the viability, T/C (second compound 0.01 µM, first compound 0.1 µM) was 99.5%. For the same molecule, the viability, T/C (second compound 0.0316 µM, first compound 0.000316 µM) was 64.2%, the viability, T/C (second compound 0.0316 µM, first compound 0.001 µM) was 67.2% and the viability, T/C (second compound 0.0316 µM, first compound 0.00316 µM) was 68.8%. The viability, T/C (second compound 0.0316 µM, first compound 0.01 µM) was 58.9%, the viability, T/C [1] was 51.3% and the viability, T/C [2] was 47.2%. The viability, T/C (second compound 0.1 µM, first compound 0.000316 µM) was 15.6%, the viability, T/C (second compound 0.1 µM, first compound 0.001 µM) was 14.4% and the viability, T/C (second compound 0.1 µM, first compound 0.00316 µM) was 13.9%. For the same molecule, the viability, T/C (second compound 0.1 µM, first compound 0.01 µM) was 17.4%, the viability, T/C [3] was 11.6% and the viability, T/C [4] was 13.2%. It also gave a viability, T/C (second compound 0.316 µM, first compound 0.000316 µM) of 3.72%, a viability, T/C (second compound 0.316 µM, first compound 0.001 µM) of 3.94% and a viability, T/C (second compound 0.316 µM, first compound 0.00316 µM) of 6.08%. For the same molecule, the viability, T/C (second compound 0.316 µM, first compound 0.01 µM) was 4.53%, the viability, T/C [5] was 4.8% and the viability, T/C [6] was 5.23%. For the same molecule, the viability, T/C (second compound 1 µM, first compound 0.000316 µM) was 3.84%, the viability, T/C (second compound 1 µM, first compound 0.001 µM) was 2.22% and the viability, T/C (second compound 1 µM, first compound 0.00316 µM) was 3.44%. The viability, T/C (second compound 1 µM, first compound 0.01 µM) was 3.39%, the viability, T/C [7] was 2.44% and the viability, T/C [8] was 1.63%.
